Source: ChEMBL document CHEMBL1126203, “Synthesis and structure-activity relationships of a series of novel benzopyran-containing platelet activating factor antagonists” (J Med Chem, 1992)

System: Rattus norvegicus
Assay: Compounds were evaluated by intravenous administration along with 100 ug/kg of PAF in rat
Type: functional

## CCOC(=O)COc1cc(C(C)CCCc2ccc(F)cc2)cc2c1C1=C(CCN(CC(=O)NC)C1)C(C)(C)O2 (stereo unspecified)
  ED50: 0.6 mg/kg
